Results from patent US8445532B2, “Use of phthalide derivatives” (priority 2005, dated 2013).
≈ marks a conversion by molar mass, not a printed value. Read-outs that look alike come from different tables or passages of the source.

Experiments:
Assay type in all cases: cell-based, human
[1] = system: K562; test: MTT drug resistance determination to conventional chemotherapeutic drugs; settings: K562, drug alone, 68 h
Excerpt: (§1) The following cell lines were used: K562 (human chronic myeloid leukemia cell line) and K562/Adr (a cell line with drug-resistance to chemotherapeutic drugs such as Adriamycin induced by a long-term exposure to a low dosage of Adriamycin); KB (human oral epithelia cell line) and KBv200 (a cell line with drug-resistance to chemotherapeutic drugs such as Vincristine induced by a long-term exposure to a low dosage of Vincristine); MCF-7 (human mammary cancer cell line) and MCF-7/Adr (a cell line with drug-resistance to chemotherapeutic drugs such as Adriamycin induced by a long-term exposure to a low dosage of Adriamycin). All the cell lines mentioned above were purchased from Institute of Hematology, Chinese Academy of Medical Sciences.
(§2) Half-inhibitory concentration (IC50) was calculated by the GraphPad Prism software (San Diego, Calif.). Drug reaction was analyzed by Sigmoldal non-linear regression model.
(§3) The cells at logarithmic phase were collected and added into RPMI 1640 medium (containing 10% fetal bovine serum) to prepare a cell suspension. Then the cell suspension was plated onto a 96-well plate at 100 μl per well (1×10^4 cell/well). Adriamycin, Vincristine, Taxol, cisplatin of different concentration gradients were directly added to the semi-suspending cells (K562 and K562/Adr). The adherent cells were cultured for 24 hours after inoculation so that they could adhere completely, and then the drugs mentioned above in different concentrations were added. There were six parallel repeated wells for every concentration gradient. The medium was added up to a final volume of 200 μl per well. The cells were cultured at the condition of 37° C., saturated humidity, 5% CO2 for 68 hours. 50 μl MTT (2 mg/mL) per well was added. The 96-well plate was centrifuged and the supernatant was removed. Then 120 μl DMSO per well was added and vibrated by vibrator. The OD value was determined at a wavelength of 590 nm by enzyme labeling instrument after the crystal was dissolved completely.
(§4) The calculating method: IC50=drug concentration when the inhibitory rate was 50%.
(§5) Drug resistant factor (RF)=the IC50 of the drug resistant cells/the IC50 of the sensitive cells.

[2] = system: KB; test: as above; settings: drug alone, 68 h
Excerpt: as §1, §2, §3, §4, §5

[3] = system: MCF-7; test: as above; settings: 68 h
Excerpt: as §1, §2, §3, §4, §5

[4] = system: K562/Adr; test: as above; settings: for RF (drug resistant factor): IC50 K562/Adr / IC50 K562; for IC50: K562/Adr, drug alone, 68 h, MTT
Excerpt: as §1
The multi-drug resistant cell line of K562/Adr is mainly characterized by the concurrency of multiple resistant mechanisms including the increased expression of P-gp and Bcl-2 family proteins, and the enhanced activity of glyoxalase I, etc. K562/Adr is resistant to Adriamycin 20 folds more than K562, and cross-resistant to Vincristine, Daunomycin, Mitoxantrone, Taxol, etc.
as §2, §3, §4, §5

[5] = system: KBv200; test: as above; settings: for RF (drug resistant factor): IC50 KBv200 / IC50 KB; for IC50: KBv200, drug alone, 68 h, MTT
Excerpt: as §1
The multi-drug resistant cell line, of KBv200 is also mainly characterized by the concurrency of multiple resistant mechanisms including the increased expression of P-gp and Bcl-2 family proteins, and the enhanced activity of glyoxalase I, etc. KBv200 is resistant to Vincristine more than 100 folds in comparison with KB, and cross-resistant to […], Daunomycin, Mitoxantrone, Taxol, etc.
as §2, §3, §4, §5

[6] = system: MCF-7/Adr; test: as above; settings: for RF (drug resistant factor): IC50 MCF-7/Adr / IC50 MCF-7; for IC50: MCF-7/Adr, drug alone, 68 h, MTT
Excerpt: as §1
Similarly, the multi-drug resistant cell line of MCF-7/Adr is also mainly characterized by the concurrency of multiple resistant mechanisms including the increased expression of P-gp and Bcl-2 family proteins, and the enhanced activity of glyoxalase I, etc.
as §2, §3, §4, §5

[7] = system: K562/Adr cells; test: Sensitizing effect of PA to conventional chemotherapeutic drugs (MTT); settings: drug alone, 68 h; for IC50: Homo sapiens, read-out: IC50 of anti-tumor drug, Ctrl (without PA)
Method: (§6) The cells at logarithmic phase were collected and added into RPMI 1640 medium (containing 10% fetal bovine serum) to make cell suspensions. The cell suspension was added to 96-well plate at 100 μl per well, and the cell number was 2×10^3 (suspending cells) or 1×10^3 (adherent cells) per well. After inoculation, the suspending cells were adapted for half an hour on the plate and the adherent cells were cultivated to allow adhesion before the drugs were added. The control groups (Ctrl) were added with anti-tumor drugs but without PA. The drug concentration of each PA group was 10 μg/mL. The concentrations of chemotherapeutic drugs increased from 0.001 μg/mL to 20 μg/mL. There Were six parallel repeated wells for every concentration gradient. RPMI 1640 was added up to a finally volume of 200 μl per well. The cells were cultured at the condition of 37° C., saturated humidity, 5% CO2 for 68 hours. The MTT was determined and the IC50 was calculated as in example 4.
(§7) The formula of resistant factor: Resistant Factor (RF)=the IC50 without sensitizer/the IC50 with sensitizer.

[8] = system: KBv200 cells; test: as above; settings: KBv200, drug alone, 68 h; for IC50: Homo sapiens, read-out: IC50 of anti-tumor drug, Ctrl (without PA)
Method: as §6, §7

[9] = system: MCF-7/Adr cells; test: as above; settings: drug alone, 68 h; for IC50: Homo sapiens, NCI/ADR-RES, read-out: IC50 of anti-tumor drug, Ctrl (without PA)
Method: as §6, §7

[10] = Homo sapiens, MCF7, MCF-7, drug alone, read-out: IC50
[11] = Homo sapiens, NCI/ADR-RES, read-out: IC50

IC50 ([1]; Homo sapiens, read-out: IC50) [µg/mL]	IC50 ([2]; Homo sapiens, read-out: IC50) [µg/mL]	IC50 [3, 10] [µg/mL]	IC50 ([4]; Homo sapiens, read-out: IC50) [µg/mL]	IC50 [6, 11] [µg/mL]	Structure (SMILES)	RF (drug resistant factor) [4]	RF (drug resistant factor) [5]	RF (drug resistant factor) [6]	IC50 ([5]; Homo sapiens, read-out: IC50) [µg/mL]	IC50 [7] [µg/mL]	IC50 [8] [µg/mL]	IC50 [9] [µg/mL]	also measured
					N.N.[Cl][Pt][Cl] [DDP, Cisplatin]	4.727	14.13	11.38					IC50 [1]: 0.2274 ± 0.078 µg/mL; IC50 [2]: 0.5509 ± 0.094 µg/mL; IC50 ([3]; MCF-7, drug alone): 0.6453 ± 0.1675 µg/mL; IC50 [4]: 1.075 ± 0.5646 µg/mL; IC50 [5]: 7.785 ± 0.6536 µg/mL; IC50 [6]: 7.342 ± 0.764 µg/mL; IC50 of anti-tumor drug, Ctrl (without PA) ([7]; in µg/mL): 5.311 ± 0.4429; IC50 of anti-tumor drug, Ctrl (without PA) ([8]; in µg/mL): 5.868 ± 0.2438; IC50 of anti-tumor drug, Ctrl (without PA) ([9]; in µg/mL): 7.708 ± 1.077
0.218 ± 0.011 (≈ 0.264 µM)	0.153 ± 0.092 (≈ 0.185 µM)	0.096 ± 0.014 (≈ 0.116 µM)	12.2 ± 0.576 (≈ 14.7 µM)	18.6 ± 1.75 (≈ 22.5 µM)	CC[C@]1(O)C[C@H]2CN(CCc3c([nH]c4ccccc34)[C@@](C(=O)OC)(c3cc4c(cc3OC)N(C=O)[C@H]3[C@@](O)(C(=O)OC)[C@H](OC(C)=O)[C@]5(CC)C=CCN6CC[C@]43[C@@H]65)C2)C1 [VCR, Vincristine]	55.73	139.5	193.75	21.3 ± 1.21 (≈ 25.9 µM)	12.1 ± 0.349	10.7 ± 0.992	14.1 ± 1.95	
0.215 ± 0.152 (≈ 0.396 µM)	0.49 ± 0.176 (≈ 0.902 µM)	0.312 ± 0.143 (≈ 0.574 µM)	14.1 ± 0.35 (≈ 25.9 µM)	19 ± 0.67 (≈ 34.9 µM)	COc1cccc2c1C(=O)c1c(O)c3c(c(O)c1C2=O)C[C@@](O)(C(=O)CO)C[C@@H]3O[C@H]1C[C@H](N)[C@H](O)[C@H](C)O1 [Adr, doxorubicin]	65.39	33.22	59.07	16.3 ± 1.03 (≈ 30 µM)	7.67 ± 0.16	4.39 ± 0.336	6.32 ± 0.775	Resistance of K562/Adr relative to K562 ([4]; description of cell line): 20 folds
